According to publication PMC5218480 (PLoS ONE, 2017):

Tested on: MV-4-11 cells
Assay: Gene expression microarray analysis (Affymetrix PrimeView) and GSEA
Type: cell-based, human
Set-up: RFU PODN (11730768_x_at) / Fold change /veh PODN (11730768_x_at) / RFU LINC00158 (11744669_a_at) / Fold change /veh LINC00158 (11744669_a_at) / RFU DUSP10 (11751237_a_at) / Fold change /veh DUSP10 (11751237_a_at) / RFU ID3 (11757404_x_at) / Fold change /veh ID3 (11757404_x_at) / RFU PLEKHG5 (11737974_s_at) / Fold change /veh PLEKHG5 (11737974_s_at) / RFU LRRC4B (11730491_at) / Fold change /veh LRRC4B (11730491_at) / RFU GIMAP4 (11747438_a_at) / Fold change /veh GIMAP4 (11747438_a_at) / RFU KRT8 (11758183_x_at) / Fold change /veh KRT8 (11758183_x_at) / RFU CNN1 (11734310_a_at) / Fold change /veh CNN1 (11734310_a_at) / RFU VPS37D (11726825_at) / Fold change /veh VPS37D (11726825_at) / RFU C10orf10 (11716522_x_at) / Fold change /veh C10orf10 (11716522_x_at) / RFU KIR2DL2 /// KIR2DL4 /// KIR2DL5A /// KIR2DL5B /// KIR2DS1 /// KIR2DS2 /// KIR2DS3 /// KIR2DS4 /// KIR3DL3 /// KIR3DL3 /// KIR3DS1 (11738374_at) / Fold change /veh KIR2DL2 /// KIR2DL4 /// KIR2DL5A /// KIR2DL5B /// KIR2DS1 /// KIR2DS2 /// KIR2DS3 /// KIR2DS4 /// KIR3DL3 /// KIR3DL3 /// KIR3DS1 (11738374_at) / RFU C1QL1 (11718748_at) / Fold change /veh C1QL1 (11718748_at) / RFU TMPRSS4 (11747572_a_at) / Fold change /veh TMPRSS4 (11747572_a_at) / RFU HAMP (11756126_x_at) / Fold change /veh HAMP (11756126_x_at) / RFU RNFT2 (11725882_a_at) / Fold change /veh RNFT2 (11725882_a_at) / RFU NR4A2 (11747474_a_at) / Fold change /veh NR4A2 (11747474_a_at) / RFU ABCC12 (11746883_a_at) / Fold change /veh ABCC12 (11746883_a_at) / RFU TMEM136 (11760407_x_at) / Fold change /veh TMEM136 (11760407_x_at) / RFU CLDN22 /// WWC2 (11732394_at) / Fold change /veh CLDN22 /// WWC2 (11732394_at) / RFU HLA-DPB1 (11760878_x_at) / Fold change /veh HLA-DPB1 (11760878_x_at) / RFU SPINT1 (11716480_a_at) / Fold change /veh SPINT1 (11716480_a_at) / RFU GAP43 (11754022_s_at) / Fold change /veh GAP43 (11754022_s_at) / RFU A4GNT (11735810_at) / Fold change /veh A4GNT (11735810_at) / RFU PRB3 (11715151_x_at) / Fold change /veh PRB3 (11715151_x_at) / RFU TUBB4B (11761932_at) / Fold change /veh TUBB4B (11761932_at) / RFU CAPN14 (11732068_a_at) / Fold change /veh CAPN14 (11732068_a_at) / RFU TMCC2 (11721928_a_at) / Fold change /veh TMCC2 (11721928_a_at) / RFU IRGQ (11745062_a_at) / Fold change /veh IRGQ (11745062_a_at) / RFU FAM174B (11720279_a_at) / Fold change /veh FAM174B (11720279_a_at) / RFU TMPRSS4 (11748680_a_at) / Fold change /veh TMPRSS4 (11748680_a_at) / RFU FAM212B (11763350_a_at) / Fold change /veh FAM212B (11763350_a_at) / RFU PLEKHG5 (11743358_a_at) / Fold change /veh PLEKHG5 (11743358_a_at) / RFU ZSCAN30 (11745921_a_at) / Fold change /veh ZSCAN30 (11745921_a_at) / RFU CMKLR1 (11741424_a_at) / Fold change /veh CMKLR1 (11741424_a_at) / RFU LOC101060620 /// MAPK8IP1 (11723275_at) / Fold change /veh LOC101060620 /// MAPK8IP1 (11723275_at) / RFU SPTSSB (11747773_x_at) / Fold change /veh SPTSSB (11747773_x_at) / RFU PRSS12 (11739890_at) / Fold change /veh PRSS12 (11739890_at) / RFU BIN1 (11741810_x_at) / Fold change /veh BIN1 (11741810_x_at) / RFU WNT11 (11732464_a_at) / Fold change /veh WNT11 (11732464_a_at) / RFU C10orf10 (11716521_a_at) / Fold change /veh C10orf10 (11716521_a_at) / RFU C5orf56 (11738089_at) / Fold change /veh C5orf56 (11738089_at) / RFU CYB561 (11721691_x_at) / Fold change /veh CYB561 (11721691_x_at) / RFU ANKRD19P (11752326_a_at) / Fold change /veh ANKRD19P (11752326_a_at) / RFU OR2T12 /// OR2T33 /// OR2T8 (11738714_s_at) / Fold change /veh OR2T12 /// OR2T33 /// OR2T8 (11738714_s_at) / RFU VCAN (11748164_a_at) / Fold change /veh VCAN (11748164_a_at) / RFU JSRP1 (11732532_at) / Fold change /veh JSRP1 (11732532_at) / RFU KRTAP10-11 (11738290_x_at) / Fold change /veh KRTAP10-11 (11738290_x_at) / RFU MYO3A (11730013_a_at) / Fold change /veh MYO3A (11730013_a_at) / RFU EBF3 (11725865_a_at) / Fold change /veh EBF3 (11725865_a_at) / RFU CAMK2N1 (11719241_x_at) / Fold change /veh CAMK2N1 (11719241_x_at) / RFU C5orf56 (11738088_a_at) / Fold change /veh C5orf56 (11738088_a_at) / RFU OLFML3 (11715873_a_at) / Fold change /veh OLFML3 (11715873_a_at) / RFU LOC100653217 /// NTM (11731650_a_at) / Fold change /veh LOC100653217 /// NTM (11731650_a_at) / RFU MAPK11 (11762145_a_at) / Fold change /veh MAPK11 (11762145_a_at) / RFU FIZ1 (11724087_x_at) / Fold change /veh FIZ1 (11724087_x_at) / RFU OASL (11726364_x_at) / Fold change /veh OASL (11726364_x_at) / RFU SOX15 (11748057_x_at) / Fold change /veh SOX15 (11748057_x_at) / RFU CD79A (11719716_a_at) / Fold change /veh CD79A (11719716_a_at) / RFU HIST1H1D (11736915_at) / Fold change /veh HIST1H1D (11736915_at) / RFU CASKIN2 (11723855_a_at) / Fold change /veh CASKIN2 (11723855_a_at) / RFU LOC730098 (11760151_x_at) / Fold change /veh LOC730098 (11760151_x_at) / RFU OR4N2 (11742367_at) / Fold change /veh OR4N2 (11742367_at) / RFU PRRT2 (11749266_a_at) / Fold change /veh PRRT2 (11749266_a_at) / RFU SNX32 (11753110_a_at) / Fold change /veh SNX32 (11753110_a_at) / RFU CDHR5 (11726645_a_at) / Fold change /veh CDHR5 (11726645_a_at) / RFU RCAN1 (11760418_a_at) / Fold change /veh RCAN1 (11760418_a_at) / RFU FAM167A (11723789_a_at) / Fold change /veh FAM167A (11723789_a_at) / RFU FAM26E (11764081_at) / Fold change /veh FAM26E (11764081_at) / RFU ISYNA1 (11749810_s_at) / Fold change /veh ISYNA1 (11749810_s_at) / RFU ACY1 (11761880_at) / Fold change /veh ACY1 (11761880_at) / RFU 11764098_at / Fold change /veh 11764098_at / RFU SAMD14 (11745864_x_at) / Fold change /veh SAMD14 (11745864_x_at) / RFU NPB (11741838_a_at) / Fold change /veh NPB (11741838_a_at) / RFU TMPRSS6 (11731388_a_at) / Fold change /veh TMPRSS6 (11731388_a_at) / RFU KRTAP10-2 (11738614_at) / Fold change /veh KRTAP10-2 (11738614_at) / RFU ARHGAP8 /// PRR5-ARHGAP8 (11727945_x_at) / Fold change /veh ARHGAP8 /// PRR5-ARHGAP8 (11727945_x_at) / RFU KRTAP5-7 /// NADSYN1 (11734609_at) / Fold change /veh KRTAP5-7 /// NADSYN1 (11734609_at) / RFU RASL12 (11751679_a_at) / Fold change /veh RASL12 (11751679_a_at) / RFU CDKN2B (11736163_a_at) / Fold change /veh CDKN2B (11736163_a_at) / RFU PRF1 (11729649_at) / Fold change /veh PRF1 (11729649_at) / RFU, ZNF638 /// ZNF638-IT1 / Fold change vs veh, ZNF638 /// ZNF638-IT1 / RFU, PANK3 / Fold change vs veh, PANK3 / RFU, SH3YL1 / Fold change vs veh, SH3YL1 / RFU, ZEB2 / Fold change vs veh, ZEB2 / RFU, NRIP1 / Fold change vs veh, NRIP1 / RFU, PTTG1IP / Fold change vs veh, PTTG1IP / RFU, CAPN2 / Fold change vs veh, CAPN2 / RFU, MED14 / Fold change vs veh, MED14 / RFU, SNORA58 / Fold change vs veh, SNORA58 / RFU, C1orf63 / Fold change vs veh, C1orf63 / RFU, LRRFIP1 / Fold change vs veh, LRRFIP1 / RFU, NDUFAF7 / Fold change vs veh, NDUFAF7 / RFU, SLC12A2 / Fold change vs veh, SLC12A2 / RFU, IBTK / Fold change vs veh, IBTK / RFU, ESF1 / Fold change vs veh, ESF1 / Fold change vs veh, TMEM50B / RFU, TAOK1 / Fold change vs veh, TAOK1 / RFU, ACBD3 / Fold change vs veh, ACBD3 / RFU, TMA16 / Fold change vs veh, TMA16 / RFU, RWDD3 / Fold change vs veh, RWDD3 / RFU, BCAT1 / Fold change vs veh, BCAT1 / RFU, EDEM3 / Fold change vs veh, EDEM3 / RFU, TMEM33 / Fold change vs veh, TMEM33 / RFU, WDR75 / Fold change vs veh, WDR75 / RFU, AHCTF1 / Fold change vs veh, AHCTF1 / RFU, TFRC / Fold change vs veh, TFRC / RFU, ZDHHC17 / Fold change vs veh, ZDHHC17 / RFU, NOM1 / Fold change vs veh, NOM1 / RFU, ARL8B / Fold change vs veh, ARL8B / RFU, ZBTB11 / Fold change vs veh, ZBTB11 / RFU, TAMM41 / Fold change vs veh, TAMM41 / RFU, KIAA1704 /// LOC100996395 / Fold change vs veh, KIAA1704 /// LOC100996395 / RFU, ING1 / Fold change vs veh, ING1 / RFU, TRMT61B / Fold change vs veh, TRMT61B / RFU, FUBP3 / Fold change vs veh, FUBP3 / RFU, TP53 / Fold change vs veh, TP53 / RFU, TNKS2 / Fold change vs veh, TNKS2 / RFU, ZFP14 / Fold change vs veh, ZFP14 / RFU, ACTR2 / Fold change vs veh, ACTR2 / RFU, PPP3R1 / Fold change vs veh, PPP3R1 / RFU, PIK3R1 / Fold change vs veh, PIK3R1 / RFU, HNRNPA1 / Fold change vs veh, HNRNPA1 / RFU, RNF170 / Fold change vs veh, RNF170 / RFU, ZNF28 / Fold change vs veh, ZNF28 / RFU, RNGTT / Fold change vs veh, RNGTT / RFU, OGT / Fold change vs veh, OGT / RFU, BRD1 / Fold change vs veh, BRD1 / RFU, MARS / Fold change vs veh, MARS / RFU, ZNF655 / Fold change vs veh, ZNF655 / RFU, FAHD1 / Fold change vs veh, FAHD1 / RFU, BDP1 / Fold change vs veh, BDP1 / RFU, LRRCC1 / Fold change vs veh, LRRCC1 / RFU, ARID1A / Fold change vs veh, ARID1A / RFU, ZNF146 / Fold change vs veh, ZNF146 / RFU, ZNF330 / Fold change vs veh, ZNF330 / RFU, GPN3 / Fold change vs veh, GPN3 / RFU, C9orf123 / Fold change vs veh, C9orf123 / RFU, N4BP2L2 / Fold change vs veh, N4BP2L2 / RFU, ARFIP1 / Fold change vs veh, ARFIP1 / RFU, FAM179B / Fold change vs veh, FAM179B / RFU, BCL10 / Fold change vs veh, BCL10 / RFU, UHRF1BP1L / Fold change vs veh, UHRF1BP1L / RFU, BET1 / Fold change vs veh, BET1 / RFU, CNOT2 / Fold change vs veh, CNOT2 / RFU, ZNF268 / Fold change vs veh, ZNF268 / Fold change vs veh, ZNF507 / RFU, DGCR2 / Fold change vs veh, DGCR2 / RFU, WDSUB1 / Fold change vs veh, WDSUB1 / Fold change vs veh, HSP90B1 /// MIR3652 / RFU, ADSS / Fold change vs veh, ADSS / RFU, GK / Fold change vs veh, GK / RFU, ZNF148 / Fold change vs veh, ZNF148 / RFU, TAF9 / Fold change vs veh, TAF9 / RFU, SLC1A5 / Fold change vs veh, SLC1A5 / RFU, SLMO2 / Fold change vs veh, SLMO2 / RFU, ABCC4 / Fold change vs veh, ABCC4 / RFU, LOC101060439 /// RAP1B / Fold change vs veh, LOC101060439 /// RAP1B / RFU, RFX7 / Fold change vs veh, RFX7 / RFU, GTPBP10 / Fold change vs veh, GTPBP10 / RFU, CNEP1R1 / Fold change vs veh, CNEP1R1 / RFU, BIVM-ERCC5 /// ERCC5 / Fold change vs veh, BIVM-ERCC5 /// ERCC5 / RFU, ILF3 / Fold change vs veh, ILF3 / RFU 11762660_at / Fold change /veh 11762660_at / RFU VCAN (11757783_s_at) / Fold change /veh VCAN (11757783_s_at) / RFU DDX43 (11728927_at) / Fold change /veh DDX43 (11728927_at) / RFU KRT8 (11758188_x_at) / Fold change /veh KRT8 (11758188_x_at) / RFU NKD1 (11759106_at) / Fold change /veh NKD1 (11759106_at) / RFU SRD5A1 (11742802_a_at) / Fold change /veh SRD5A1 (11742802_a_at) / RFU TPSAB1 /// TPSB2 (11721975_s_at) / Fold change /veh TPSAB1 /// TPSB2 (11721975_s_at) / RFU GSTM3 (11746129_a_at) / Fold change /veh GSTM3 (11746129_a_at) / RFU IL23R (11737362_x_at) / Fold change /veh IL23R (11737362_x_at) / RFU TMEM51 (11727254_a_at) / Fold change /veh TMEM51 (11727254_a_at) / RFU PIWIL2 (11732686_x_at) / Fold change /veh PIWIL2 (11732686_x_at) / RFU ORM1 (11744905_x_at) / Fold change /veh ORM1 (11744905_x_at) / RFU CCDC152 (11743942_at) / Fold change /veh CCDC152 (11743942_at) / RFU ECM1 (11717891_a_at) / Fold change /veh ECM1 (11717891_a_at) / RFU IL23R (11748794_a_at) / Fold change /veh IL23R (11748794_a_at) / RFU TNFAIP8L3 (11732012_x_at) / Fold change /veh TNFAIP8L3 (11732012_x_at) / RFU MBOAT4 (11741988_at) / Fold change /veh MBOAT4 (11741988_at) / RFU 11764193_at / Fold change /veh 11764193_at / RFU TMEM53 (11763286_at) / Fold change /veh TMEM53 (11763286_at) / RFU MAGEB2 (11727129_at) / Fold change /veh MAGEB2 (11727129_at) / RFU TMEM200A (11744735_a_at) / Fold change /veh TMEM200A (11744735_a_at) / RFU CCDC152 (11751479_a_at) / Fold change /veh CCDC152 (11751479_a_at) / RFU FAM211A (11726209_a_at) / Fold change /veh FAM211A (11726209_a_at) / RFU RGS16 (11746705_a_at) / Fold change /veh RGS16 (11746705_a_at) / RFU VCAN (11755009_s_at) / Fold change /veh VCAN (11755009_s_at) / RFU RHOB (11743442_s_at) / Fold change /veh RHOB (11743442_s_at) / RFU RGS16 (11720943_a_at) / Fold change /veh RGS16 (11720943_a_at) / RFU RGS16 (11720944_at) / Fold change /veh RGS16 (11720944_at) / RFU, VPS4B / Fold change vs veh, VPS4B / RFU, CREB1 / Fold change vs veh, CREB1 / RFU, DNAJC13 / Fold change vs veh, DNAJC13 / RFU, GNAQ / Fold change vs veh, GNAQ / RFU, CDK5R1 / Fold change vs veh, CDK5R1 / RFU, ZRANB3 / Fold change vs veh, ZRANB3 / RFU, CUL4A / Fold change vs veh, CUL4A / RFU, CCNY / Fold change vs veh, CCNY / RFU, UFL1 / Fold change vs veh, UFL1 / RFU, COG3 / Fold change vs veh, COG3 / RFU, DIAPH2 / Fold change vs veh, DIAPH2 / RFU, SKA2 / Fold change vs veh, SKA2 / RFU, AFF3 / Fold change vs veh, AFF3 / RFU, LMF1 / Fold change vs veh, LMF1 / RFU, IPO11 / Fold change vs veh, IPO11 / RFU, DFFB / Fold change vs veh, DFFB / RFU, FOXP1 / Fold change vs veh, FOXP1 / RFU, CARD8 / Fold change vs veh, CARD8 / RFU, STRN3 / Fold change vs veh, STRN3 / RFU, ADK / Fold change vs veh, ADK / RFU, RASSF2 / Fold change vs veh, RASSF2 / RFU, WIPF1 / Fold change vs veh, WIPF1 / RFU, LARP1B / Fold change vs veh, LARP1B / RFU, RASA1 / Fold change vs veh, RASA1 / RFU, RB1 / Fold change vs veh, RB1 / RFU, PPFIA1 / Fold change vs veh, PPFIA1 / RFU, MAT2A / Fold change vs veh, MAT2A / RFU, CCT5 / Fold change vs veh, CCT5 / RFU, WDR92 / Fold change vs veh, WDR92 / RFU, CUX1 / Fold change vs veh, CUX1 / RFU, TTC7A / Fold change vs veh, TTC7A / RFU, TMEM135 / Fold change vs veh, TMEM135 / RFU, DEPTOR / Fold change vs veh, DEPTOR / RFU, CPM / Fold change vs veh, CPM / RFU, DNAJB6 / Fold change vs veh, DNAJB6 / RFU, CACNA2D3 / Fold change vs veh, CACNA2D3 / RFU, DTX4 / Fold change vs veh, DTX4 / RFU, TFCP2 / Fold change vs veh, TFCP2 / RFU, GMCL1 /// GMCL1P1 / Fold change vs veh, GMCL1 /// GMCL1P1 / RFU, AEBP2 / Fold change vs veh, AEBP2 / RFU, SNHG1 /// SNORD22 /// SNORD25 /// SNORD26 /// SNORD27 /// SNORD28 /// SNORD29 /// SNORD31 / Fold change vs veh, SNHG1 /// SNORD22 /// SNORD25 /// SNORD26 /// SNORD27 /// SNORD28 /// SNORD29 /// SNORD31 / Fold change (Aza/veh), C12orf56 (ProbeSet 11735607_a_at) / Fold change (ACY-1035/veh), C12orf56 (ProbeSet 11735607_a_at) / Fold change (Aza/veh), FGFR1OP (ProbeSet 11751329_s_at) / Fold change (ACY-1035/veh), FGFR1OP (ProbeSet 11751329_s_at) / Fold change (Aza/veh), VPS36 (ProbeSet 11739960_a_at) / Fold change (ACY-1035/veh), VPS36 (ProbeSet 11739960_a_at) / RFU SYPL1 (11715823_x_at) / Fold change /veh SYPL1 (11715823_x_at) / RFU IGFBP7 (11715501_s_at) / Fold change /veh IGFBP7 (11715501_s_at) / RFU REEP3 (11722064_at) / Fold change /veh REEP3 (11722064_at) / RFU IGLL1 (11728026_x_at) / Fold change /veh IGLL1 (11728026_x_at): dose or concentration left out as unconfirmed
Conditions: ProbeSet 11726703_a_at; LIST B

## Nc1ccc(-c2cccs2)cc1NC(=O)c1ccc2c(c1)cc(C1CC1)n2CCN1CCOCC1 [ACY-1035]
  RFU, BCL10: 67.93 RFU
